Reference: PMC7033278, “A Nonpeptide Oxytocin Receptor Agonist for a Durable Relief of Inflammatory Pain” (Scientific Reports, 2020)

How the values were obtained:
24 off-target GPCRs = test: Eurofins SafetyScreen functional panel, GPCR agonist and antagonist profile; type: cell-based; details: 5 μM, 24 GPCRs
Method: (§1) In vitro profiling of LIT-001 was performed by Eurofins as described in the Eurofins SafetyScreen-Functional panel, 2018[31]. The hepatotoxicity of LIT-001 was studied with cryo-preserved mouse hepatocytes. After unfreezing (optiTHAW and optiINCUBATE media, Xenotech) and cell viability control, cells (2 × 10^6 cells/ml) were dispatched in 96 well microtiterplates. LIT-001 was added to reach a concentration 1 μM in the presence of 1 × 10^6 cells/mL in a volume of 100 μl/well. The incubation was stopped at 4, 20, 40, 80 and 120 min in adding 100 μl of acetonitrile at 0 °C. A positive control was treated in the same conditions. All samples were analyzed by UHPLC coupled to a mass spectrometer (Shimadzu LC-MS 8030).

[1] = lipophilicity LogD7.4 (octanol/PBS); type: physicochemical; details: experimental, octanol/PBS pH 7.4
Method: Solubility of LIT-001 was determined from solution of about 1 mg of compound in 500 μl of PBS at pH 7.4. (Figs. 1, S1) The solution was stirred at room temperature for 24 h and centrifuged at 15.000 × g for 5 min. The supernatant was diluted with a mixture of acetonitrile and water and analyzed by HPLC with a diode detector (Gilson; Kinetex 2.6 μm C18 100 A 50 × 4.6 mm column). […] The lipophilicity (LogD7.4) of LIT-001 was measured using […] of a stock solution diluted with different concentrations of octanol and PBS to cover a LogP range from −2 to + 4.5 in a final volume of 1 ml. After stirring for 1 h at room temperature (≈ 20 °C), the samples were centrifuged and the different phases were analyzed by HPLC (Gilson; diode detector, Kinetex 2.6 μ C18 100 A 50 × 4.6 mm column).

hOTR = system: hOTR; set-up: method as in PMID 30199637; details: human receptor, cited from earlier work
[2] = stability in PBS solution over 24 h; type: physicochemical; details: PBS pH 7.4, room temperature, after 24 h
[3] = system: CFA-induced inflammatory pain model; test: CFA-induced edema size (hindpaw diameter); type: in vivo; details: rat, i.p. LIT-001 10 mg/kg at D1 after CFA
Method: (§2) LIT-001 was prepared as described in Frantz et al.[20]. For in vivo biological assays, it was dissolved in carboxymethyl cellulose (CMC, 1%) - NaCl (0.9%) and administered at the dose of 10 mg/kg. LIT-001 or vehicle were injected intraperitoneally (i.p.), in a volume of 10 ml/kg[20], 24 h after the induction of the CFA-induced painful inflammatory sensitization. To confirm the implication of the OTR we injected (i.p.) also L-368,899 (Sigma, St. Louis, MO) (1 mg/kg), an OTR antagonist, in combination with LIT-001 in another group of rats[11].
(§3) Male Wistar rats (300 g; JANVIER LABS, Le Genest St. Isle, France) were used for this study. They were housed by groups of 3 or 4 under standard conditions (room temperature, 22 °C; 12/12 h light/dark cycle) with ad libitum access to food and water and behavioral enrichment. All animals were manipulated and habituated to the tests and to the room for at least 2 weeks. All behavioral tests were done during the light period (i.e., between 7:00 and 19:00). All the procedures were performed in accordance with European committee council Direction, authorization from French Department of Agriculture and from the regional ethic committee.
In order to induce a peripheral inflammation, 100 μl of complete Freund adjuvant (CFA; Sigma, St. Louis, MO), was injected in the right hindpaw of the rat. […]

[4] = system: CFA-induced thermal heat hyperalgesia; test: thermal heat sensitivity, Plantar test (Hargreaves), CFA model; type: in vivo; details: rat
Method: as §2, §3
To test the animal heat sensitivity, we used the Plantar test with Hargreaves method (Ugo Basile, Comerio, Italy) to compare the response of each hindpaw[33] when we tested healthy animals (unilateral intraplantar NaCl injection) and animals having received unilateral intraplantar CFA (Freund’s Complete Adjuvant) injection. The habituated rat is placed in a small box and we wait until the animal is calmed then we exposed the hindpaw to a radiant heat, the latency time of paw withdrawal was measured.
In order to induce a peripheral inflammation, 100 μl of complete Freund adjuvant (CFA; Sigma, St. Louis, MO), was injected in the right hindpaw of the rat. All CFA injections were performed under light isoflurane anesthesia (3%).

[5] = target: T1, noradrenaline transporter (Rattus norvegicus, UniProt Q63380); test: uptake inhibition, rat brain synaptosomes; type: biochemical; details: 5 μM
T1 construct: transporters from rat brain synaptosomes; tissue Eurofins (contract assay); host or cells: rat brain synaptosomes
T1 sequence (Q63380 1-617): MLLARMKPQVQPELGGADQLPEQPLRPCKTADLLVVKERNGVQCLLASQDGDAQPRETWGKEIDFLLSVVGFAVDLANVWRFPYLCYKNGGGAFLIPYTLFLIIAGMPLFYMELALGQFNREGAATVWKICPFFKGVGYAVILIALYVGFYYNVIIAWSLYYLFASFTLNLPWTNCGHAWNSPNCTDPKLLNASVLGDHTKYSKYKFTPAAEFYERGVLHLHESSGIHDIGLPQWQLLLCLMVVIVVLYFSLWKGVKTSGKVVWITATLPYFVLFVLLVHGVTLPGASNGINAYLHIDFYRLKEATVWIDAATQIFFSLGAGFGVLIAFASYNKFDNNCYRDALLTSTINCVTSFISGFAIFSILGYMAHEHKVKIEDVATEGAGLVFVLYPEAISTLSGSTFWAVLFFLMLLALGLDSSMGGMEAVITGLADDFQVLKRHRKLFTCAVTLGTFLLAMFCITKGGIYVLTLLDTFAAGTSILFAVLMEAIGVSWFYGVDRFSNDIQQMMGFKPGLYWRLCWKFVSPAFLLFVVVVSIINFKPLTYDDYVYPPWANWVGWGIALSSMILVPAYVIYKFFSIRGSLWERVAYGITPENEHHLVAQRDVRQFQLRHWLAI
Method: as §1

dopamine transporter = target: T2, dopamine transporter (Rattus norvegicus, UniProt P23977); test: uptake inhibition, rat brain synaptosomes; type: biochemical; details: 5 μM
T2 construct: transporters from rat brain synaptosomes; tissue Eurofins (contract assay); host or cells: rat brain synaptosomes
Method: as §1

serotonin transporter = target: T3, serotonin transporter (Rattus norvegicus, UniProt P31652); test: uptake inhibition, rat brain synaptosomes; type: biochemical; details: 5 μM
T3 construct: transporters from rat brain synaptosomes; tissue Eurofins (contract assay); host or cells: rat brain synaptosomes
T3 sequence (P31652 whole entry): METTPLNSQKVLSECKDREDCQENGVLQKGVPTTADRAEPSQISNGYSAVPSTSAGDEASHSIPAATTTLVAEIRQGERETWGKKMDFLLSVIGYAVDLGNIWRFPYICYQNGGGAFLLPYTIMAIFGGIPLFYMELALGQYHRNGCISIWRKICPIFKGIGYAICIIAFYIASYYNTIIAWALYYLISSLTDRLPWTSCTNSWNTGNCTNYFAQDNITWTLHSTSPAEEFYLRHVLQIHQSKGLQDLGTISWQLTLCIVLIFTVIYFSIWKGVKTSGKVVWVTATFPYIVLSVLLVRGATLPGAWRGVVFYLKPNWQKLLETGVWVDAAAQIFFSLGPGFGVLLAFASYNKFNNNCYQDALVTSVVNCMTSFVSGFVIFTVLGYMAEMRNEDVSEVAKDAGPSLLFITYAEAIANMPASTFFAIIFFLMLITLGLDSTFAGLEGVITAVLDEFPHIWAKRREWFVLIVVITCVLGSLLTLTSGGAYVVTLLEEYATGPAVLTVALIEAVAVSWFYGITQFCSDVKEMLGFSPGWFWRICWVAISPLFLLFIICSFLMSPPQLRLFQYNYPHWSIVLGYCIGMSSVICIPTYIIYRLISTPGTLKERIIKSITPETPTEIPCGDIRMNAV
Method: as §1

hERG = hERG (Homo sapiens, UniProt Q12809); test: hERG inhibition, patch clamp method; type: cell-based
Sequence of hERG (Q12809 whole entry): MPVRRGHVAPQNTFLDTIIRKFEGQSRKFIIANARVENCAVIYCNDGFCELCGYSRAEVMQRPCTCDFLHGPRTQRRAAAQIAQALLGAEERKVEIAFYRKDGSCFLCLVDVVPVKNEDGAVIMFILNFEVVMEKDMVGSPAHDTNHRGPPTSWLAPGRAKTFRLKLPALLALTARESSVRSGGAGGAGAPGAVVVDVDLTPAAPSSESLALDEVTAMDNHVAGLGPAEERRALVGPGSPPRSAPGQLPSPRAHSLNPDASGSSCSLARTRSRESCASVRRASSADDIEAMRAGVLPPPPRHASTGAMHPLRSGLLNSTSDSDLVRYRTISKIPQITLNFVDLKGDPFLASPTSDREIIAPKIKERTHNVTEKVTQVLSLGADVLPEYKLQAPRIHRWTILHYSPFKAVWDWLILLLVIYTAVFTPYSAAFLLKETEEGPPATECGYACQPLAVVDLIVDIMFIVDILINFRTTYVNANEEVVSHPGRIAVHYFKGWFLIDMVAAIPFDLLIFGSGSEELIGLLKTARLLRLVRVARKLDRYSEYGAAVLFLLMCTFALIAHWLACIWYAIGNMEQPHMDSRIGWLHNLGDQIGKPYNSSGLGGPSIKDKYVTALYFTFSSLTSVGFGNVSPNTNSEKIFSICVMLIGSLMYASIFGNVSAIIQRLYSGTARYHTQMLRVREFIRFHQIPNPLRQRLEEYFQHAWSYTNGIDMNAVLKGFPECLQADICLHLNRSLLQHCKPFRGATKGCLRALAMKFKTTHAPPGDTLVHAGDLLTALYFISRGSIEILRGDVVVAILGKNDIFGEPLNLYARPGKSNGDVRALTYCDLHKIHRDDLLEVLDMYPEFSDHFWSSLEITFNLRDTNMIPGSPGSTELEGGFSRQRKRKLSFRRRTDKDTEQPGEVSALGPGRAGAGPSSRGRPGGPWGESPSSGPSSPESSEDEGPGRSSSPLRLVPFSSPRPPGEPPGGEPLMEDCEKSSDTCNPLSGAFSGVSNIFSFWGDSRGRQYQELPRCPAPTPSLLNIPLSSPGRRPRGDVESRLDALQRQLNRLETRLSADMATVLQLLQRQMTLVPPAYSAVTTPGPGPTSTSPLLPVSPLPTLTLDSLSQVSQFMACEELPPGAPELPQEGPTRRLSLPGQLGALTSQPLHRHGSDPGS

[6] = stability in human hepatocytes; type: in vitro ADME
Method: Stability of LIT-001 was determined in human hepatocytes. Cells were unfrozen and their viability measured (Tryptan blue). Cells are suspended (2 × 10^6 cells/ml) and dispensed in 96 well microtiterplates (50 μl/well). LIT-001 (50 μl of a 2 μM in the incubation media) was added. The final concentration of the compound was 1 μM in 1 × 10^6 cells/ml. The incubation volume was 100 μl/well. Incubations were stopped after 0, 4, 20, 40, 80 and 120 min in mixing the well content with 100 μl acetonitrile at 0 °C. A positive control (testosterone) was prepared in same conditions. All samples were analyzed by LC-MS/MS (UHPLC coupled to a triple quadripole Shimadzu LC-MS 8030). Each measurement was performed in triplicate.

[7] = target: T4, GABAA (alpha1/beta2/gamma2) (Homo sapiens, UniProt P14867+P18507+P47870); test: ion channel blockade panel; type: cell-based; details: 5 μM
T4 construct: Eurofins (contract assay)
T4 sequence (P14867 28-456): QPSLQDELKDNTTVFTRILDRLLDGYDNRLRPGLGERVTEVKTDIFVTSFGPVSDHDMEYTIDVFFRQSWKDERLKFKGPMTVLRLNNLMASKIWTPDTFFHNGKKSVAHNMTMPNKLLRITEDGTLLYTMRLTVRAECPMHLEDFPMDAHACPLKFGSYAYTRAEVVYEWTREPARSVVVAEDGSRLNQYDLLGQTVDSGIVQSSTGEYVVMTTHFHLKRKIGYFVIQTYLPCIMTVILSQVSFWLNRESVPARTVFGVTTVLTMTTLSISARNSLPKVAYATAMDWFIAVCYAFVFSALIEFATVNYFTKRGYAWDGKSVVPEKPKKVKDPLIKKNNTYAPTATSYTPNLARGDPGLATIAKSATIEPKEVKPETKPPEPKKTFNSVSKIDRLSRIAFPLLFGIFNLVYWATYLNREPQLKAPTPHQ
T4 sequence (P47870 25-512 limits assumed): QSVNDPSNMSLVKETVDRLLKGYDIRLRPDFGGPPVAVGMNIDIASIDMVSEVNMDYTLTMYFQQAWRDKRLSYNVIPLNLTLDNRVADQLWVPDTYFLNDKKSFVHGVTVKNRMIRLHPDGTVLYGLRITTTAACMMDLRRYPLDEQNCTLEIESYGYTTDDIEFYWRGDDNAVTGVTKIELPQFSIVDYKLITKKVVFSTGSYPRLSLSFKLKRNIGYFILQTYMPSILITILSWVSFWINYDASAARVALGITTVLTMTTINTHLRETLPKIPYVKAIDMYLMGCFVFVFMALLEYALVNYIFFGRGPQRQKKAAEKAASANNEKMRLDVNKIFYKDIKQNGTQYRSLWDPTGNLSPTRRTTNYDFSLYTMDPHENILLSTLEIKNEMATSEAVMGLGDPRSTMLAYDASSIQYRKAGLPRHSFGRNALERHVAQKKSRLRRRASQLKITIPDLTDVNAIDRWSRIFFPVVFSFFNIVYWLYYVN
T4 sequence (P18507 40-475): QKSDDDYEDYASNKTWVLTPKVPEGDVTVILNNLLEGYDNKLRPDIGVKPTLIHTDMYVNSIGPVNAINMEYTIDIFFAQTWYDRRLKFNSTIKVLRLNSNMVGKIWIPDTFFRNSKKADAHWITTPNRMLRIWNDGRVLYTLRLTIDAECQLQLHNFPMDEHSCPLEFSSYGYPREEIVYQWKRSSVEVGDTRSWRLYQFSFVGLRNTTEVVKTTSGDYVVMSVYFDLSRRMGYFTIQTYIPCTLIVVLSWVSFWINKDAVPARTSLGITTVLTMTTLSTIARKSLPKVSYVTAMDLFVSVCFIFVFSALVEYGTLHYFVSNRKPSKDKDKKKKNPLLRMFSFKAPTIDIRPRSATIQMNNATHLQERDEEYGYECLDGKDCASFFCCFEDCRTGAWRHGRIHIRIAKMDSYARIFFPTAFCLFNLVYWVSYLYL
Method: as §1

nAChR (alpha4/beta2) = target: T5, nAChR (alpha4/beta2) (Homo sapiens, UniProt P17787+P43681); test: ion channel blockade panel; type: cell-based; details: 5 μM
T5 construct: Eurofins (contract assay)
Method: as §1

[8] = target: T6, human hERG potassium channel (Homo sapiens, UniProt Q12809); test: ion channel blockade panel; type: cell-based; details: 5 μM
T6 construct: Eurofins (contract assay)
T6 sequence (Q12809 whole entry): as the sequence (Q12809 whole entry) above
Method: as §1

Vav1.5 sodium channel = target: T7, Vav1.5 sodium channel (Homo sapiens, UniProt Q14524); test: ion channel blockade panel; type: cell-based; details: 5 μM
T7 construct: Eurofins (contract assay)
Method: as §1

[9] = i.p., D1 after CFA, measured 1 hour after injection

Cc1cc(C(=O)N2Cc3cnn(C)c3Nc3ccccc32)ccc1CNC(=O)N1CCC[C@H]1C(=S)N(C)C [LIT-001]
agonist or antagonist activity at GPCRs (24 off-target GPCRs): No significant agonist or antagonist
logD [1]: 2 ± 0.3
EC50 (hOTR; agonist): 25 nM
Emax (hOTR) (hOTR; efficacy): 96%
degradation in PBS solution [2]: No degradation
CFA-induced edema size [3]: 9.49 ± 0.23 mm
thermal heat latency, NaCl-injected hindpaw (control animals) ([4]; 10 mg/kg i.p.): 8.14 ± 0.48 s
thermal heat latency, hindpaw contralateral to CFA (cCFA) ([4]; 10 mg/kg i.p.): 11 ± 0.53 s
relative-to-baseline AUC, thermal heat latency, CFA-injected hindpaw ([4]; i.p. LIT-001 10 mg/kg at D1 after CFA): 135 ± 9%
thermal heat withdrawal latency, CFA-injected hindpaw ([4]; i.p. LIT-001 10 mg/kg at D1 after CFA, 3 h post i.p.): 5.83 ± 0.65 s
dose at which analgesic effect reaches a plateau, thermal heat hypersensitivity [4, 9]: 10 mg/kg
dose of first analgesic action, thermal heat hypersensitivity [4, 9]: 5 mg/kg
noradrenaline uptake blockade [5]: no significant uptake blockade
dopamine uptake blockade (dopamine transporter): no significant uptake blockade
serotonin uptake blockade (serotonin transporter): no significant uptake blockade
inhibition at 1 µM (hERG; 1 μM): 9.5%
inhibition at 10 µM (hERG; 10 μM): 10.6%
degradation on human hepatocytes ([6]; 1 μM, 37 °C, after 2 hours): no degradation was observed
half-life at 1 μM ([6]; human, human hepatocytes (cryopreserved, suspension), from in vitro stability results): > 120 min
GABAA (alpha1/beta2/gamma2) channel blockade [7]: no significant blockade activity
nAChR (alpha4/beta2) channel blockade (nAChR (alpha4/beta2)): no significant blockade activity
hERG potassium channel blockade [8]: no significant blockade activity
Vav1.5 sodium channel blockade (Vav1.5 sodium channel): no significant blockade activity
